Experimental data taken from US20220372013A2, “PIPERIDINE-2,6-DIONE DERIVATIVES AND CROHN'S DISEASE TREATING” (Tianjin Hemay Pharmaceutical Sci-Tech Co., Ltd, priority 2016, published 2022).
Marks after values point to notes of the source that are not given here.

What was measured:
[1] = test system: DNBS-Induced Inflammatory Bowel Disease Models in Rats; assay: Biological Example 2: DNBS-induced inflammatory bowel disease models in rats; type: in vivo, Wistar rats; details: for Adhesion Degree / Colon Length / Colon Weight / Ulcer Area: sixth day, Mean ± SD; for growth rate of the body weight (in words): fourth day of the experiment, compared with model control group, doses as in Table 7
Experimental: 110 male Wistar rats were fasted for 40 hours. A 5% glucose injection (10 mL/Kg) was administered subcutaneously during fasting. 48 rats with normal conditions and moderate body weight were selected from the fasting rats. The animals were randomly divided into […] according to the body weight: normal control group, model control group, sulfasalazine group (300 mg/Kg), dexamethasone group (0.1 mg/Kg), the compound in Example 26 group (30 mg/kg) and the compound in Example 27 group (30 mg/kg), with 8 rats in each group. The animals were anesthetized with isoflurane. A specially made gavage device (made by a rat gavage device having the diameter of 2 mm, which was nested on a mouse gavage device having the diameter of 1 mm) was slowly inserted into the enteric cavity at 8 cm from the anus. The model control group, the compound in Example 26 group and the compound in Example 27 group were administered with 0.5 mL of 50 mg/mL DNBS in 30% ethanol solution. The normal control group was administered with 0.5 mL of 30% ethanol solution. The animals were inverted in anesthesia for 15 minutes after the gavage device was removed. The day when the model was prepared was the first day of the experiment. After 4 hours of DNBS induction, the corresponding drug or the corresponding volume of 1% CMC-Na was administered once per day. On the sixth day of the experiment, the animals were euthanized to observe the results of each index so as to score the colon adhesion degree, measure the length of colon and ulcer area, weigh colon and calculate the colon weight to length ratio.
The compound in Example 26 and Example 27, sulfasalazine and dexamethasone: Preparation Method: Suspended with 1% CMC-Na, and prepared when it was needed.
Levene's Test for homogeneity of data was performed with Spss. Where the data were homogeneous (P>0.05), one-way ANOVA LSD test was performed. Where the analysis of variance was significant (P≤0.05), Dunnett's multiple comparison (parameter method) was performed. Where the results of Levene's Test were significant (P≤0.05), Kruskal-Wallis nonparametric test was performed. Where the results of Kruskal-Wallis nonparametric test were significant (P≤0.05), Mann-Whitney U test was performed for pairwise comparison.

[2] = test system: mice; assay: Biological Example 5: acute toxicity experiment of single oral administration in mice; type: in vivo; details: single oral 1000 mg/Kg, Mean ± SD
Procedure, shortened: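 Fasted ICR mice (19-21 g, three females and three males per group) received a single oral dose of 1000 mg/Kg, given first to one mouse of each sex and then to the remaining four. Behaviour, nervous and autonomic signs, and deaths were recorded over 0-15 min. Animals were then observed for 7 days with daily body weight.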

[3] = test system: Crohn's disease; details: C. Yang et, Aliment Pharmacol Ther 2015; cited from earlier work
[4] = test system: DNBS-Induced Inflammatory Bowel Disease Models in Rats; assay: Biological Example 1: DNBS-induced inflammatory bowel disease models in rats; type: in vivo, Wistar rats
Experimental: Wistar rats, male, body weight of 100-120 g.
90 male Wistar rats were fasted for 40 hours. A 5% glucose injection was administered subcutaneously during fasting. 60 rats with normal conditions and moderate body weight were selected from the fasting rats. The animals were randomly divided into 6 groups according to the body weight: normal control group, model control group, sulfasalazine group (300 mg/Kg), and the compound in Example 27 groups consisting of 5, 15 and 30 mg/Kg dose groups. There were 10 rats in each group. The animals were anesthetized with ether. A specially made gavage device (made by a rat gavage device having the diameter of 2 mm, which was nested on a mouse gavage device having the diameter of 1 mm) was slowly inserted into the enteric cavity at 8 cm from the anus. The model control group, the sulfasalazine group and the compound in Example 27 groups were administered with 0.5 mL of 50 mg/mL DNBS in 30% ethanol solution. The normal control group was administered with 0.5 mL of 30% ethanol solution. The animals were inverted in anesthesia for 15 minutes after the gavage device was removed. The day when the model was prepared was the first day of the experiment. After 4 hours of DNBS induction, the corresponding drug or the corresponding volume of 1% CMC-Na was administered once per day. The body weights were recorded and the stool characteristics were scored. On the sixth day of the experiment colon tissues were taken from the animals to observe the results of each index.
The compound in Example 27 and sulfasalazine: Preparation Method: Suspended with 1% CMC-Na, and prepared when it was needed.
Animals were euthanized on the sixth day of the experiment to observe the results of each index. After the animals were sacrificed, colons were obtained. The adhesion degree of colon was observed and the length of the colon was measured. The ulcer area was calculated after removing the contents in the colon and the weight of the colon tissue was weighed. The colon tissue was longitudinally divided into two parts. One part of the colon tissue was fixed in 10% formalin solution for later use. The other part of the colon tissue was put into the liquid nitrogen to quickly frozen, and then was reserved at −80° C. for the detection of MPO.
Calculation method for ulcer area: length of ulcer point (cm)×width of ulcer point (cm).
The frozen tissue was ground into powder in liquid nitrogen. An appropriate amount of the powder was weighed and was added into 50 mM potassium phosphate solution (containing 0.5% cetyltrimethylammonium bromide) to give a 25 mg/mL solution. The resultant solution was homogenized by an electric homogenizer. 1 mL of suspension was centrifuged to give a supernatant. 7 μL of the supernatant was added into a 96-well plate and 200 μL of o-dianisidine mixture (containing 0.167 mg/mL o-dianisidine and 0.0006% H2O2 potassium phosphate buffer). OD values of the resultant solution at 0, 30, 60, and 90 s were detected at 450 nm of the microplate reader.
Test for homogeneity of variance was performed with Spss13.0. Where variance of data was homogeneous (P>0.05), one-way ANOVA LSD test was performed. Where the analysis of variance was significant (P<0.05), then Dunnett's multiple comparison (parameter method) or Kruskal-Wallis non-parametric test was performed. Where the results of Kruskal-Wallis non-parametric test were significant (P<0.05), the Mann-Whitney U test was performed for pairwise comparison.

[5] = 300 mg/Kg i.g. qd × 6, sixth day, Mean ± SD

COCCCN1C(=O)CCC(N2C(=O)c3cccc(N)c3C2=O)C1=O (stereo not shown) [Example 26, 4-amino-2-(1-(3-methoxypropyl)-2,6-dioxopiperidin-3-yl)isoindolin-1,3-dione]
Adhesion Degree ([1]; 30 mg/Kg i.g. qd × 6): 0.3 ± 0.5 Points
Colon Length ([1]; 30 mg/Kg i.g. qd × 6): 13.7 ± 1.4 cm
Colon Weight ([1]; 30 mg/Kg i.g. qd × 6): 1628.3 ± 185.5 mg
Ulcer Area ([1]; 30 mg/Kg i.g. qd × 6): 1.1 ± 0.9## cm^2
therapeutic effects on the model (in words) ([1]; 30 mg/kg i.g. qd × 6): good therapeutic effects
growth rate of the body weight (in words) [1]: higher than that in the model control group
Daily Body Weight ([2]; Female mice, Day 1): 18.0 ± 0.7 g
Daily Body Weight ([2]; Female mice, Day 2): 21.9 ± 0.3 g
Daily Body Weight ([2]; Female mice, Day 3): 22.1 ± 0.5 g
Daily Body Weight ([2]; Female mice, Day 4): 22.4 ± 0.2 g
Daily Body Weight ([2]; Female mice, Day 5): 22.7 ± 0.3 g
Daily Body Weight ([2]; Female mice, Day 6): 22.6 ± 0.3 g
Daily Body Weight ([2]; Female mice, Day 7): 22.4 ± 0.2 g
Daily Body Weight ([2]; Male mice, Day 1): 18.7 ± 0.8 g
Daily Body Weight ([2]; Male mice, Day 2): 23.4 ± 0.5 g
Daily Body Weight ([2]; Male mice, Day 3): 25.0 ± 0.6 g
Daily Body Weight ([2]; Male mice, Day 4): 26.6 ± 1.4 g
Daily Body Weight ([2]; Male mice, Day 5): 27.3 ± 1.3 g
Daily Body Weight ([2]; Male mice, Day 6): 28.3 ± 1.3 g
Daily Body Weight ([2]; Male mice, Day 7): 28.8 ± 1.4 g

O=C1CCC(N2C(=O)c3ccccc3C2=O)C(=O)N1 (stereo not shown) [thalidomide]
effectiveness in the treatment of Crohn's disease (in words) [3]: not effective

O=C(O)c1cc(/N=N/c2ccc(S(=O)(=O)Nc3ccccn3)cc2)ccc1O [Sulfasalazine, sulfasalazine, reference compound]
Adhesion Degree [4, 5]: 0.2 ± 0.4 Point
Colon MPO Activity [4, 5]: 26.0 ± 14.8 U/mg
Colon Weight [4, 5]: 1794.9 ± 242.3 mg
Colon weight to length ratio [4, 5]: 140.6 ± 27.9 mg/cm
Ulcer Area [4, 5]: 0.7 ± 0.6 cm^2
reduction of the ulcer area ([4]; 300 mg/Kg, vs model control group): 60%
Adhesion Degree ([1]; 300 mg/Kg i.g. qd × 6): 0.8 ± 0.7 Points
Colon Length ([1]; 300 mg/Kg i.g. qd × 6): 13.2 ± 2.5 cm
Colon Weight ([1]; 300 mg/Kg i.g. qd × 6): 1776.1 ± 280.7 mg
Ulcer Area ([1]; 300 mg/Kg i.g. qd × 6): 1.6 ± 1.2# cm^2
growth rate of the body weight (in words) [1]: higher than that in the model control group

C[C@@H]1C[C@H]2[C@@H]3CCC4=CC(=O)C=C[C@]4(C)[C@@]3(F)[C@@H](O)C[C@]2(C)[C@@]1(O)C(=O)CO [Dexamethasone, dexamethasone, reference compound]
Adhesion Degree ([1]; 0.1 mg/Kg i.g. qd × 6): 0.3 ± 0.5 Points
Colon Length ([1]; 0.1 mg/Kg i.g. qd × 6): 14.2 ± 0.9 cm
Colon Weight ([1]; 0.1 mg/Kg i.g. qd × 6): 1496.0 ± 450.0 mg
Ulcer Area ([1]; 0.1 mg/Kg i.g. qd × 6): 1.4 ± 1.5# cm^2

Nc1cccc2c1CN(C1CCC(=O)NC1=O)C2=O (stereo not shown) [lenalidomide]
effectiveness in the treatment of Crohn's disease (in words) [3]: not effective
